Test results published in patent publication US20230250096A1, “SUBSTITUTED PHENYL-1H-PYRROLO[2,3-c] PYRIDINE DERIVATIVES” (Janssen Pharmaceutica NV, priority 2021, published 2023).
pIC50: −log10 of the molar value. Like-named read-outs stand apart in the source and are kept apart here.

How the values were obtained:
[1] = tested on: MOLM14 cells; assay: Proliferation assay (spheroid confluence, 8 days), MOLM14; assay type: cell-based, human; conditions: read-out: spheroid assay_MOLM14 IC50
Method: (§1) The anti-proliferative effect of menin/MLL protein/protein interaction inhibitor test compounds was assessed in human leukemia cell lines. The cell line MOLM14 harbors a MLL translocation and expresses the MLL fusion protein MLL-AF9, respectively, as well as the wildtype protein from the second allele. OCI-AML3 cells that carry the NPM1c gene mutation were also tested. […] KO-52 was used as a control cell line containing two MLL (KMT2A) wildtype alleles in order to exclude compounds that display general cytotoxic effects.
(§2) MOLM14 cells were cultured in RPMI-1640 (Sigma Aldrich) supplemented with 10% heat-inactivated fetal bovine serum (HyClone), 2 mM L-glutamine (Sigma Aldrich) and 50 μg/ml gentamycin (Gibco). KO-52 and OCI-AML3 cell lines were propagated in alpha-MEM (Sigma Aldrich) supplemented with 20% heat-inactivated fetal bovine serum (HyClone), 2 mM L-glutamine (Sigma Aldrich) and 50 μg/ml gentamycin (Gibco).
(§3) In order to assess the anti-proliferative effects, 200 MOLM14 cells, 200 OCI-AML3 cells or 300 KO-52 cells were seeded in 200 μl media per well in 96-well round bottom, ultra-low attachment plates (Costar, catalogue number 7007). Cell seeding numbers were chosen based on growth curves to ensure linear growth throughout the experiment. Test compounds were added at different concentrations and the DMSO content was normalized to 0.3%. Cells were incubated for 8 days at 37° C. and 5% CO2. Spheroid like growth was measured in real-time by live-cell imaging (IncuCyteZOOM, Essenbio, 4×objective) acquiring images at day 8. Confluence (%) as a measure of spheroid size was determined using an integrated analysis tool.
(§4) In order to determine the effect of the test compounds over time, the confluence in each well as a measure of spheroid size, was calculated. Confluence of the highest dose of a reference compound was used as baseline for the LC (Low control) and the confluence of DMSO treated cells was used as 0% cytotoxicity (High Control, HC).
(§5) Absolute IC50 values were calculated as percent change in confluence as follows:
(§6) LC=Low Control: cells treated with e.g. 1 μM of the cytotoxic agent staurosporin, or e.g. cells treated with a high concentration of an alternative reference compound
(§7) HC=High Control: Mean confluence (%) (DMSO treated cells)
(§8) % Effect=100−(100*(Sample−LC)/(HC−LC))
(§9) GraphPad Prism (version 7.00) was used to calculate the IC50. Dose-response equation was used for the plot of % Effect vs Log10 compound concentration with a variable slope and fixing the maximum to 100% and the minimum to 0%.

[2] = tested on: KO-52 cells; assay: Proliferation assay (spheroid confluence, 8 days), KO-52 control cell line; assay type: cell-based, human; conditions: Homo sapiens, read-out: spheroid assay_KO-52 IC50
Method: as §1, §2, §3, §4, §5, §6, §7, §8, §9

[3] = target: T1, menin/MLL (terbium chelate-labeled menin, FITC-MBM1 peptide) (Homo sapiens, UniProt O00255, T541A); assay: Menin/MLL homogenous time-resolved fluorescence (HTRF) assay; assay type: binding; conditions: 30 min incubation
T1 construct: Menin (a.a 1-610-6xhis tag, 2.3 mg/mL in 20 mM Hepes)
T1 sequence (O00255 with tags, fused parts or gaps T541A): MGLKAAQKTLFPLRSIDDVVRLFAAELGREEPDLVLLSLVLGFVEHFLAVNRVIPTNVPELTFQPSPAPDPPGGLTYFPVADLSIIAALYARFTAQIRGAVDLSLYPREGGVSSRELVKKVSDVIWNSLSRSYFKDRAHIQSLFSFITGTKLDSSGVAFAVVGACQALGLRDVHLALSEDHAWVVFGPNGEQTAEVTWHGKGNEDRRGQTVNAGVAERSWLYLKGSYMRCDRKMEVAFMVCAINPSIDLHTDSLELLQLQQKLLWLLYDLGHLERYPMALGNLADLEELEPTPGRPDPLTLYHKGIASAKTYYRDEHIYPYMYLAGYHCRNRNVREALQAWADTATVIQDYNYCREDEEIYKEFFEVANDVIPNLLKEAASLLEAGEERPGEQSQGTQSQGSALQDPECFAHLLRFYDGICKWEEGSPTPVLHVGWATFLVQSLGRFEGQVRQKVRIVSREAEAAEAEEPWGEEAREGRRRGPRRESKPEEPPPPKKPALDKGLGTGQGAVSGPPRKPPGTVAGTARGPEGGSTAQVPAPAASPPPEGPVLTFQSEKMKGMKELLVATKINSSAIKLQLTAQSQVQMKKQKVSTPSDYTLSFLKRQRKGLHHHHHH
How it was run: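 Terbium-labeled menin (a.a. 1-610, His-tagged; […]) pre-incubated 30 min with compound, then 75 nM FITC-MBM1 peptide added for 15 min at ambient temperature in Tris pH 7.5 buffer, 0.5% DMSO. HTRF 520/490 nm ratio read; IC50 from 11-point four-fold titrations, typically from 10 μM.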

[4] = tested on: MEIS1 mRNA expression; assay: MEIS1 mRNA expression assay (Quantigene Singleplex) in MOLM14 cells; assay type: cell-based, human; conditions: 48 hours incubation
How it was run: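 MOLM14 cells, 3,750/well, exposed to increasing compound concentrations for 48 h. MEIS1 mRNA measured by QuantiGene Singleplex branched-DNA hybridization (lysis 45 min, hybridization 18–22 h, both 55 °C), normalized to RPL28. IC50 fitted to background-corrected fold change versus DMSO.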

[5] = tested on: OCI-AML3 cells; assay: Proliferation assay (spheroid confluence, 8 days), OCI-AML3; assay type: cell-based, human; conditions: read-out: spheroid assay_OCI-AML3 IC50
Method: as §1, §2, §3, §4, §5, §6, §7, §8, §9

SMILES | pIC50 ([1]; Homo sapiens, MOLM-14, MOLM14) | pIC50 [3] | pIC50 ([4]; Homo sapiens, MOLM-14, 48 h) | pIC50 ([5]; Homo sapiens, OCI-AML-3, OCI-AML3) | pIC50 [4] | pIC50 ([5]; OCI-AML3) | pIC50 ([1]; MOLM14) | pIC50 [2]
CN=S(=O)(c1cc(F)ccc1-n1cc(CC2CN(CC3CCOCC3)C2)c2c(C)cncc21)C(C)C (stereo not drawn) [Compound 79] | 7.04 | 9.77 | – | – | – | – | – | 5.03
CCN(C(=O)c1cc(F)ccc1-n1cc(CC2CN(C(C(C)C)[C@H]3C[C@@H](N4CCN(C(C)=O)CC4)C3)C2)c2c(C)cncc21)C(C)C (stereo partly drawn) [Compound 35a] | – | 10.23 | 7.68 | – | – | – | – | 5.82
Cc1cncc2c1c(CC1CN(CC3CCOCC3)C1)cn2-c1ccc(F)cc1S(=N)(=O)C(C)C (stereo not drawn) [Compound 80] | 7.00 | 9.94 | – | – | – | – | – | 5.14
Cc1cncc2c1c(C[C@@H]1CCN(CC3CCC(=O)N(C)CC3)C1)cn2-c1ccc(F)cc1C(=O)N(C)C(C)C (stereo partly drawn) [Compound 184] | 7.59 | 10.22 | – | – | – | – | – | 5.13
CC(=O)N1CCC(CN2CC[C@@H](Cc3cn(-c4ccc(F)cc4C(=O)N(CCO)C(C)C)c4cncc(C)c34)C2)CC1 [Compound 326] | 7.80 | 10.42 | 7.64 | – | – | – | – | –
COCCNC(=O)[C@H]1CC[C@H](CN2CC(Cc3cn(-c4ccc(F)cc4C(=O)N(C)C(C)C)c4cncc(C)c34)C2)CC1 [Compound 158] | 8.22 | 10.35 | 7.62 | – | – | – | – | –
CCN(C(=O)c1cc(F)ccc1-n1cc(CC2CN(C(C(C)C)[C@H]3C[C@H](N4C[C@H]5CN(C(C)=O)C[C@@H]5C4)C3)C2)c2c(C)cncc21)C(C)C (mixture of isomers) [Compound 38b] | 8.70 | 10.89 | – | – | – | – | – | 5.92
Cc1cncc2c1c(CC1CN(CC3CCC(=O)NC3)C1)cn2-c1ccc(F)cc1C(=O)N(C)C(C)C (stereo not drawn) [Compound 120] | 6.27 | 10.27 | 6.83 | – | – | – | – | –
CC(=O)N1CC([C@H](C)N2CC[C@@H](Cc3cn(-c4ccc(F)cc4C(=O)N(C)C(C)C)c4cncc(C)c34)C2)C1 (single isomer, unassigned) [Compound 176] | 7.34 | 9.70 | 6.51 | – | – | – | – | –
COCCN(C)C(=O)N1CCC(CN2CC[C@@H](Cc3cn(-c4ccc(F)cc4C(=O)N(C)C(C)C)c4cncc(C)c34)C2)CC1 [Compound 172] | 7.96 | 9.87 | 7.74 | – | – | – | – | –
CN=S(=O)(c1cc(F)ccc1-n1cc(CC2CCN(CC3CCOCC3)C2)c2c(C)cncc21)C(C)C (single isomer, unassigned) [Compound 77a] | – | 9.98 | – | – | 6.69 | – | 6.93 | –
Cc1cncc2c1c(C[C@H]1CCN(CC3CCC(=O)NC3)C1)cn2-c1ccc(F)cc1C(=O)N(C)C(C)C (mixture of isomers) [Compound 88] | 7.02 | 10.03 | 6.85 | – | – | – | – | –
Cc1cncc2c1c(C[C@@H]1CCN(CC3CCOCC3)C1)cn2-c1ccc(F)cc1[S@@](=N)(=O)C(C)C (single isomer, unassigned) [Compound 78c] | 6.70 | 9.42 | 6.38 | – | – | – | – | –
CC(=O)N1CCC(CN2CC[C@@H](Cc3cn(-c4ccc(F)cc4C(=O)N4CCC(O)C4(C)C)c4cncc(C)c34)C2)CC1 (stereo partly drawn) [Compound 313] | 6.75 | 9.81 | 6.26 | – | – | – | – | –
CC(=O)N1CCC(O)(CN2CC[C@@H](Cc3cn(-c4ccc(F)cc4C(=O)N(C)C(C)C)c4cncc(C)c34)C2)CC1 [Compound 177] | 7.46 | 9.96 | 6.57 | – | – | – | – | –
CC(=O)N1CCC(CN2CC[C@@H](Cc3cn(-c4ccc(F)cc4C(=O)N4CCC[C@@H]4CO)c4cncc(C)c34)C2)CC1 [Compound 322] | 6.49 | 9.82 | ~6.26 | – | – | – | – | –
Cc1cncc2c1c(CC1CCN(CC3(C)CCN(C(=O)CO)CC3)C1)cn2-c1ccc(F)cc1C(=O)N(C)C(C)C (single isomer, unassigned) [Compound 123] | 7.80 | 10.28 | 7.51 | – | – | – | – | –

More lines, main results first:

pIC50 ([1]; Homo sapiens, MOLM-14, MOLM14) | pIC50 [3] | pIC50 ([4]; Homo sapiens, MOLM-14, 48 h) | pIC50 ([5]; Homo sapiens, OCI-AML-3, OCI-AML3) | pIC50 [4] | pIC50 ([5]; OCI-AML3) | pIC50 ([1]; MOLM14) | SMILES | pIC50 [2]
– | 10.06 | – | 8.15 | – | – | – | COCC(=O)N1CCC(C(C)N2CCC(Cc3cn(-c4ccc(F)cc4C(=O)N(C)C(C)C)c4cncc(C)c34)C2)CC1 (single isomer, unassigned) [Compound 117a] | 5.80
– | 9.62 | – | – | 6.86 | 6.63 | – | Cc1cncc2c1c(C[C@@H]1CCN(CC3CCNC(=O)CC3)C1)cn2-c1ccc(F)cc1C(=O)N1CCC[C@H]1C (single isomer, unassigned) [Compound 353b] | –
8.00 | 10.09 | 7.28 | – | – | – | – | Cc1cncc2c1c(C[C@@H]1CCN(C[C@H]3CCCCO3)C1)cn2-c1ccc(F)cc1C(=O)N(C)C(C)C (single isomer, unassigned) [Compound 147a] | –
7.40 | 10.35 | 7.19 | – | – | – | – | CN=[S@](=O)(c1cc(F)ccc1-n1cc(C[C@H]2CCN(CC3CCN(C(C)=O)CC3)C2)c2c(C)cncc21)C(C)C (single isomer, unassigned) [Compound 128b] | –
7.77 | 10.21 | 7.82 | – | – | – | – | Cc1cncc2c1c(C[C@@H]1CCN(C[C@H]3CCNC(=O)CC3)C1)cn2-c1ccc(F)cc1C(=O)N(C)C(C)C (single isomer, unassigned) [Compound 169a] | –
6.92 | 9.65 | 6.59 | – | – | – | – | CN=[S@@](=O)(c1cc(F)ccc1-n1cc(CC2CN(CC3CCOCC3)C2)c2c(C)cncc21)C(C)C (single isomer, unassigned) [Compound 166b] | –
7.00 | 9.93 | 6.93 | – | – | – | – | Cc1cncc2c1c(CC1CN(CC3CCOCC3)C1)cn2-c1ccc(F)cc1[S@@](=N)(=O)C(C)C (single isomer, unassigned) [Compound 167b] | –
– | 9.57 | – | – | 6.39 | – | 6.52 | COCC(=O)N1CCC(C(C)N2CCC(Cc3cn(-c4ccc(F)cc4C(=O)N(C)C(C)C)c4cncc(C)c34)C2)CC1 (single isomer, unassigned) [Compound 117b] | –
7.05 | 9.98 | 6.38 | – | – | – | – | CN=[S@@](=O)(c1cc(F)ccc1-n1cc(C[C@H]2CCN(CC3CCN(C(C)=O)CC3)C2)c2c(C)cncc21)C(C)C (single isomer, unassigned) [Compound 128d] | –
7.31 | 10.08 | 7.42 | – | – | – | – | CN=[S@](=O)(c1cc(F)ccc1-n1cc(CC2CN(CC3CCOCC3)C2)c2c(C)cncc21)C(C)C (single isomer, unassigned) [Compound 166a] | –
